From patent publication US20030162727A1, “Use of cyp1b1inhibitors for treating cancer” (priority 2000, published 2003)
Several values for one entry are separate records, joined by “and”; a condition that tells them apart may be missing. Identical values can stand only once. Like-named read-outs stand apart in the source and are kept apart here.

Columns and labels:
V79MZ cells = assay: cells; conditions: for IC50: read-out: IC50 V79MZ (control vector)
Description: (§1) A Chinese hamster […] fibroblast cell line (V79MZ) and a clone expressing human CYP1B1 (V79MZh1B1), were grown at 37° C., 5%CO2 and at 90% saturated humidity, in DMEM (Dulbecco's modified eagles medium) high glucose type supplemented with 1 mM sodium pyruvate, 10% fetal calf serum, 100 U penicillin/ml and 100 μg streptomycin/ml. Neither cell line expresses endogenous P450s, although cytochrome P450 reductase is present in both cell lines. The parental and CYP1B1 expressing cell lines double in cell number every 10-12 h and were sub-cultured at 1:50 ratio (i.e. 1 ml of cells to 50 ml of fresh media) every 4-5 days. The cells were not allowed to reach confluency at any time, to ensure optimal cell physiological conditions and maximal cytochrome P450 activity. Cells were routinely used at 3rd-5th passage for all experiments.
(§2) Docetaxel was obtained from Rhone-Poulenc Rorer. Optimal growth conditions were established. The same conditions were used for both cell lines; V79MZ and V79MZh1B1 cells at 60-80% confluence were harvested and seeded at 0.5-1×10^3 cells per well in 96 well culture plates. […] Cells treated with solvent alone acted as a negative control.
(§3) Enzyme inhibition studies were undertaken by co-administration of docetaxel and the known P450 CYP1 inhibitor ANF (Sigma) at different concentration in the media. Stock solutions of ANF (1 mM, 10 mM and 100 mM) were dissolved in DMSO and added to the media to give final concentrations of 1 μM, 10 μM and 100 μM ANF (in each case the final concentration of DMSO in media was 0.1%). Following 24 h exposure to each drug (with or without inhibitor), the media were removed and replaced with fresh media without drug. In this study, cells were then grown for three doubling times (36 h) with the media changed at 24 hr. […] Media were removed from the wells and replaced with 200 μl of fresh media, followed by addition of 50 μl of MTT solution (50 mg/ml of MTT (Sigma) in sterile PBS), the cells were incubated at 37° C. in a humidified atmosphere with 5%CO2/95% air for 4 h. The MTT containing media was then removed and 200 μl of DMSO plus 25 μl of glycine buffer (0.1 M glycine/0.1 M NaCl pH 10.5) added to the cells in each well. This procedure overcomes any effect that cell density or culture medium may have on the absorption spectrum. The absorbance of the formazan produced by the viable cells was measured once for each well at 540 nm on a Labsystems EMS microplate reader (Life Sciences International). To calculate the cell viability cells treated with solvent alone were assigned a value of 100% absorbance indicating zero cytotoxicity, i.e. 100% viability. The cytotoxic profile of each drug was evaluated in triplicate 96 well plates. Each plate included several controls (media only, cells only and cells treated with solvent alone). The 96 well plate format allowed eight concentrations of the appropriate drug per plate, with eight replicates (i.e. eight separate wells) per drug concentration, i.e. 8 measurements of absorbance for each concentration of drug per plate. There were three triplicate plates per experiment resulting in a total of 24 measurements of absorbance per concentration of drug.

V79MZh1B1 cells = assay: in vitro; conditions: for cytotoxicity in CYP1B1 expressing V79MZh1B1 cells: 24 h exposure, ANF at 1, 10 and 100 μM
Description: as §1, §2, §3

CYP1B1 [1] = biological target: T1, CYP1B1 (Homo sapiens, UniProt Q16678); assay: Inhibition of EROD activity mediated by cDNA expressed cytochrome 1B1; conditions: for Ki: Ki Values, Dixon re-plots of EROD activity, mean; for inhibition at 100 μM: human, pH 7.4
T1 sequence (Q16678 1-543): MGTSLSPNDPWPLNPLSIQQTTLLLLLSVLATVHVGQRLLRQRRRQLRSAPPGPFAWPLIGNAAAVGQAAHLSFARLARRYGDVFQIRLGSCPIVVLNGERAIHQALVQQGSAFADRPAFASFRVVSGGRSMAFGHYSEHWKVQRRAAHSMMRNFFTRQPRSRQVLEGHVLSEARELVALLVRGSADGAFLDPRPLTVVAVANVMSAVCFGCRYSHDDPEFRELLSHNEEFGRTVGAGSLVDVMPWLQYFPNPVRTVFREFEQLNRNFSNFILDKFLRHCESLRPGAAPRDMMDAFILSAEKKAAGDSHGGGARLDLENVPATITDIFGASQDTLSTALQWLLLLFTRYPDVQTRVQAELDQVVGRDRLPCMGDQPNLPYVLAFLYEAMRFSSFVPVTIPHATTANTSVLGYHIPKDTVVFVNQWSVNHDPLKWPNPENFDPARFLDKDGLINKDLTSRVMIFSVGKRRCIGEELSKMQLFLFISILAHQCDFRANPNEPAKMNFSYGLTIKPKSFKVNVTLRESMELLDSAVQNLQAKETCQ
Text: Recent immunohistochemical analysis of P4501B1 protein in a variety of solid tumours identified tumour-specific enzyme expression (Murray et al, 1998). This provides a mechanism of resistance to currently used anticancer agents, as well as, an approach for targeted prodrug therapy. 7-ethoxyresorufin deethylase activity (EROD) was used to define interactions with cytochrome 1B1 (CYP1B1). 7-Ethoxyresorufin is a known substrate for P4501B1. […] For this purpose, inhibition constants (Ki) have been calculated using in vitro kinetics from CYP1B1-mediated EROD activity. EROD activity and assay has been described previously by various authors (Lubet et al., 1985, Arch. Biochem. Biophys. 238: pp 43-48; Gentest Corporation, 6 Henshaw St., Woburn, Mass. 01801 USA, data sheet given with CYP1B1, catalogue number P220). 7-Ethoxyresorufin is enzymatically deethylated to a product called resorufin. The appearance of resorufin was monitored by a fluorescence detector set at 550 nm and 582 nm (excitation and emission wavelengths). […] Incubations contained: phosphate buffer at pH 7.4, 7-ethoxyresorufin, CYP1B1 Supersomes from Gentest Co (catalogue number P220) and nicotine adenine dinucleotide phosphate (NADP) as cofactor.
The metabolism of anti-cancer drugs by CYP1B1 was studied using an inhibition of EROD assay. […] Ki values were determined by the Dixon's replots: see Table 2.

CYP1B1 [2] = biological target: T1, CYP1B1; assay: Biotransformation studies with CYP1B1; conditions: metabolites produced by CYP1B1 incubation but not control incubations
in vitro = conditions: Chinese hamster
Description: as §1, §2, §3

CYP1A1 = biological target: T2, CYP1A1 (Homo sapiens, UniProt P04798); assay: Flutamide 2-hydroxylation and inhibition, CYP1A1 compared with CYP1B1; assay type: biochemical; conditions: 2-hydroxylation of flutamide; times higher than CYP1B1
T2 sequence (P04798 1-512): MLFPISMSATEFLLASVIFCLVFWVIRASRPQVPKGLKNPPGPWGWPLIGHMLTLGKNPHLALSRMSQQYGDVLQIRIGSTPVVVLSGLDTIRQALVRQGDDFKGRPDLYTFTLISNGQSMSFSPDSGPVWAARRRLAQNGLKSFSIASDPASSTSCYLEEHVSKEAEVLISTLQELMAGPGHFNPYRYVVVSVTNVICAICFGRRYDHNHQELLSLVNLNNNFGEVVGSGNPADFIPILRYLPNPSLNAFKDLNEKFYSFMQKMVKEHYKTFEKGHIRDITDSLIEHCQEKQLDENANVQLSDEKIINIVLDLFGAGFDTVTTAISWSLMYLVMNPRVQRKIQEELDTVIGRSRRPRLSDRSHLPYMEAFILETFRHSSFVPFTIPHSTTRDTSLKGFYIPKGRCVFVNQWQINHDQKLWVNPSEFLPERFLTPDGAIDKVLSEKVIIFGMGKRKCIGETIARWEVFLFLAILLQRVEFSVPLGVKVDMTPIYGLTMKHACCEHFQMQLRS

[3] = tested on: CYP1B1, CYP1A1, and CYP1A2
CYP1B1, CYP1A1, CYP1A2 = assay: in vitro; conditions: human
[4] = fold less cytotoxic than paclitaxel; cited from earlier work
[5] = tested on: CYP1B1 in kidney tumour samples; assay: Kidney tumour assay, EROD metabolism with and without inhibitor; assay type: biochemical
Description: The effect of a CYP1B1 inhibitor was confirmed in an assay using kidney tumour samples. A buffer and NADP regenerating system was allowed to equilibrate at 37° C. and EROD (5 μM final concentration) was then added. This was followed by the addition of either P450 supersomes (control) or the appropriate tumour sample (1 mg). Supersomes were incubated for 15 minutes and tumour samples for 40 minutes.

[6] = Cricetulus griseus, V79MZ, 24 h
[7] = 24 h drug exposure, MTT, concentration at which 50% of cells are viable

SMILES: CC(=O)O[C@H]1C(=O)[C@@]2(C)[C@H]([C@H](OC(=O)c3ccccc3)[C@]3(O)C[C@H](OC(=O)[C@H](O)[C@@H](NC(=O)c4ccccc4)c4ccccc4)C(C)=C1C3(C)C)[C@]1(OC(C)=O)CO[C@@H]1C[C@@H]2O [Paclitaxel]
- IC50 (V79MZ cells; [6]): 0.035 µM
- difference in cytotoxicity between CYP1B1 expressing and non-expressing cells (V79MZh1B1 cells): no significant difference
- Ki (CYP1B1 [1]): 7.85 µM
- inhibition at 100 μM (CYP1B1 [1]): 53 to 99%
- biotransformation by CYP1B1 (CYP1B1 [2]): biotransformed by CYP1B1

SMILES: C[C@]12CC[C@H]3[C@@H](CCC4=CC(=O)CC[C@@]43C)[C@@H]1CC[C@@H]2O [Testosterone]
- Inhibition Type (CYP1B1 [1]): competitive

SMILES: O=c1[nH]cc(F)c(=O)[nH]1 [5-Fluorouracil]
- IC50 (V79MZ cells; [6]): 70 µM
- IC50 at 24 h (in vitro): 80 µM
- difference in cytotoxicity between CYP1B1 expressing and non-expressing cells (V79MZh1B1 cells): no significant difference

SMILES: CC(=O)N1CCN(c2ccc(OCC3COC(Cn4ccnc4)(c4ccc(Cl)cc4Cl)O3)cc2)CC1 (stereo not drawn) [Ketoconazole]
- Inhibition Type (CYP1B1 [1]): non-competitive
- Ki (CYP1B1 [1]): 0.3 µM and 0.27 µM

SMILES: COc1cccc2c1C(=O)c1c(O)c3c(c(O)c1C2=O)C[C@@](O)(C(C)=O)C[C@@H]3O[C@H]1C[C@H](N)[C@H](O)[C@H](C)O1 [Daunomycin]
- Ki (CYP1B1 [1]): 2.1 µM and 2.12 µM
- inhibition at 100 μM (CYP1B1 [1]): 53 to 99%

SMILES: COc1cccc2c1C(=O)c1c(O)c3c(c(O)c1C2=O)C[C@@](O)(C(=O)CO)C[C@@H]3O[C@H]1C[C@H](N)[C@H](O)[C@H](C)O1 [Doxorubicin]
- IC50 (V79MZ cells; [6]): 0.08 µM
- IC50 at 24 h (in vitro): 0.09 µM
- difference in cytotoxicity between CYP1B1 expressing and non-expressing cells (V79MZh1B1 cells): no significant difference
- Ki (CYP1B1 [1]): 2.6 µM and 2.58 µM
- inhibition at 100 μM (CYP1B1 [1]): 53 to 99%

SMILES: CC(C)C(=O)Nc1ccc([N+](=O)[O-])c(C(F)(F)F)c1 [Flutamide]
- Inhibition Type (CYP1B1 [1]): competitive
- Ki (CYP1B1 [1]): 1 µM and 0.99 µM
- inhibition at 100 μM (CYP1B1 [1]): 53 to 99%
- Km for CYP1A1 relative to CYP1B1 (CYP1A1): 5 times
- inhibition type for CYP1B1, CYP1A1, and CYP1A2 activities [3]: competitive
- Ki (CYP1B1, CYP1A1, CYP1A2): 1 to 10.3 µM
- biotransformation by CYP1B1 (CYP1B1 [2]): biotransformed by CYP1B1

SMILES: CC(=O)O[C@@]12CO[C@@H]1C[C@H](O)[C@@]1(C)C(=O)[C@H](O)C3=C(C)[C@@H](OC(=O)[C@H](O)[C@@H](NC(=O)OC(C)(C)C)c4ccccc4)C[C@@](O)([C@@H](OC(=O)c4ccccc4)[C@H]21)C3(C)C [Docetaxel]
- IC50 (V79MZ cells; [6]): 0.022 µM
- IC50 at 24 h (in vitro): 0.1 µM
- difference in cytotoxicity between CYP1B1 expressing and non-expressing cells (V79MZh1B1 cells): at least four-fold
- Inhibition Type (CYP1B1 [1]): competitive
- Ki (CYP1B1 [1]): 28 µM
- inhibition at 100 μM (CYP1B1 [1]): 53 to 99%

SMILES: N.N.[Cl][Pt][Cl] [Cisplatin]
- IC50 (V79MZ cells; [7]): 4.4 µM

SMILES: O=P1(N(CCCl)CCCl)NCCCO1 (stereo not drawn) [Cyclophosphamide]
- cytotoxicity in parental V79MZ cells (V79MZ cells; 24 h exposure, MTT, ANF at 1, 10 and 100 μM): No cytotoxicity
- cytotoxicity in CYP1B1 expressing V79MZh1B1 cells (V79MZh1B1 cells; MTT): No cytotoxicity
- inhibition of CYP1B1 activity, initial screening, in words (CYP1B1 [1]; initial screening, 1 μM ethoxyresorufin, 100 μM agent): did not inhibit CYP1B1 activity

SMILES: N.N.O=C([O-])C1(C(=O)[O-])CCC1.[Pt+2] [Carboplatin]
- IC50 (V79MZ cells; [7]): 80 µM
- difference in cytotoxicity between CYP1B1 expressing and non-expressing cells (V79MZh1B1 cells; V79MZh1B1 compared with V79MZ, MTT): no significant difference
- IC50 (V79MZh1B1 cells; read-out: IC50 V79MZhB1, 24 h drug exposure, MTT, CYP1B1 expressing cells): 100 µM

SMILES: CC/C(=C(\c1ccccc1)c1ccc(OCCN(C)C)cc1)c1ccccc1 [Tamoxifen]
- Ki (CYP1B1 [1]): 5 µM and 5.02 µM

SMILES: CC(=O)O[C@H]1C(=O)[C@@]2(C)[C@H]([C@H](OC(=O)c3ccccc3)[C@]3(O)C[C@H](OC(=O)[C@H](O)[C@@H](NC(=O)c4ccccc4)c4ccccc4)C(C)=C1C3(C)C)[C@]1(OC(C)=O)CO[C@@H]1[C@@H](O)[C@@H]2O [6-hydroxytaxol]
- cytotoxicity relative to parent compound paclitaxel [4]: 30 fold

SMILES: C[C@]12CC[C@@H]3c4ccc(O)cc4CC[C@H]3[C@@H]1CC[C@@H]2O [Estradiol]
- Inhibition Type (CYP1B1 [1]): competitive

SMILES: O=c1cc(-c2ccccc2)oc2c1ccc1ccccc12 [α-naphthoflavone]
- cytotoxicity in CYP1B1 expressing V79MZh1B1 cells (V79MZh1B1 cells; MTT): Neither cell line (parental or CYP1B1 expressing) showed cytotoxicity
- CYP1B1 activity in metabolising EROD ([5]; kidney tumour Sample 1, plus 10 nM ANF (252 without)): 145 fmol/min/mg protein
- CYP1B1 activity in metabolising EROD ([5]; kidney tumour Sample 2, plus 10 nM ANF (993 without)): 470 fmol/min/mg protein
- CYP1B1 activity in metabolising EROD ([5]; kidney tumour Sample 3, plus 10 nM ANF (880 without)): 570 fmol/min/mg protein
